#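 In this assay, cells in 96-well plates receive the compound at five concentrations for 48 hours. Endpoints are linearly interpolated between the surrounding concentrations. Abbreviation: GI50, concentration required for 50% inhibition of growth. TGI marks complete inhibition of growth.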
# What was measured:
# Test in all cases: DTP human tumour cell line panel, 48 h
# HL-60(TB) leukemia = tested on: HL-60(TB) leukemia
# NCI-H522 lung = tested on: NCI-H522 lung
# HCT-15 colon = tested on: HCT-15 colon
# SR leukemia = tested on: SR leukemia
# KM12 colon = tested on: KM12 colon
# IGROV1 ovarian = tested on: IGROV1 ovarian
# RXF 393 renal = tested on: RXF 393 renal
# SW-620 colon = tested on: SW-620 colon
# NCI-H460 lung = tested on: NCI-H460 lung
# SNB-75 CNS = tested on: SNB-75 CNS
# MDA-MB-231 breast = tested on: MDA-MB-231 breast
# SF-295 CNS = tested on: SF-295 CNS
# SK-MEL-5 melanoma = tested on: SK-MEL-5 melanoma
# A498 renal = tested on: A498 renal
# OVCAR-3 ovarian = tested on: OVCAR-3 ovarian
# U251 CNS = tested on: U251 CNS
# NCI-H226 lung = tested on: NCI-H226 lung
# T-47D breast = tested on: T-47D breast
# PC-3 prostate = tested on: PC-3 prostate
# K-562 leukemia = tested on: K-562 leukemia
# SN12C renal = tested on: SN12C renal
# OVCAR-5 ovarian = tested on: OVCAR-5 ovarian
# TK-10 renal = tested on: TK-10 renal
# HT29 colon = tested on: HT29 colon
# OVCAR-8 ovarian = tested on: OVCAR-8 ovarian
# HOP-92 NSCLC = tested on: HOP-92 NSCLC
# MALME-3M melanoma = tested on: MALME-3M melanoma
# CCRF-CEM leukemia = tested on: CCRF-CEM leukemia
# UACC-62 melanoma = tested on: UACC-62 melanoma
# MCF7 breast = tested on: MCF7 breast
# OVCAR-4 ovarian = tested on: OVCAR-4 ovarian
# SK-MEL-28 melanoma = tested on: SK-MEL-28 melanoma
# A549 NSCLC = tested on: A549 NSCLC
# SK-OV-3 ovarian = tested on: SK-OV-3 ovarian
# NCI/ADR-RES ovarian = tested on: NCI/ADR-RES ovarian
# HS 578T breast = tested on: HS 578T breast
# NCI-H23 lung = tested on: NCI-H23 lung
# HCT-116 colon = tested on: HCT-116 colon
# UACC-257 melanoma = tested on: UACC-257 melanoma
# SF-268 CNS = tested on: SF-268 CNS
# ACHN renal = tested on: ACHN renal
# MOLT-4 leukemia = tested on: MOLT-4 leukemia
# M14 melanoma = tested on: M14 melanoma
# SK-MEL-2 melanoma = tested on: SK-MEL-2 melanoma
# COLO 205 colon = tested on: COLO 205 colon
# CAKI-1 renal = tested on: CAKI-1 renal
# HOP-62 NSCLC = tested on: HOP-62 NSCLC
# UO-31 renal = tested on: UO-31 renal
# DU-145 prostate = tested on: DU-145 prostate
# BT-549 breast = tested on: BT-549 breast
# SNB-19 CNS = tested on: SNB-19 CNS
# HCC-2998 colon = tested on: HCC-2998 colon
# RPMI-8226 leukemia = tested on: RPMI-8226 leukemia
# LOX IMVI melanoma = tested on: LOX IMVI melanoma
# SF-539 CNS = tested on: SF-539 CNS
# 786-0 renal = tested on: 786-0 renal
# MDA-MB-435 = tested on: MDA-MB-435
smiles,measurement,setting,value
O=C1NC(=N[C@@H]2C[C@H]2c2ccccc2)S/C1=C\c1ccc2ncccc2c1,GI50,HL-60(TB) leukemia,0.876 µM
same,TGI,HL-60(TB) leukemia,9.47 µM
same,GI50,NCI-H522 lung,0.776 µM
same,TGI,NCI-H522 lung,3.12 µM
same,GI50,HCT-15 colon,0.74 µM
same,TGI,HCT-15 colon,> 25 µM
same,GI50,SR leukemia,0.646 µM
same,TGI,SR leukemia,3.27 µM
same,GI50,KM12 colon,1.47 µM
same,TGI,KM12 colon,> 12.7 µM
same,GI50,IGROV1 ovarian,2.66 µM
same,TGI,IGROV1 ovarian,11.9 µM
same,GI50,RXF 393 renal,1.12 µM
same,TGI,RXF 393 renal,4.84 µM
same,GI50,SW-620 colon,0.901 µM
same,TGI,SW-620 colon,> 19.4 µM
same,GI50,NCI-H460 lung,1.32 µM
same,TGI,NCI-H460 lung,6.79 µM
same,GI50,SNB-75 CNS,1.02 µM
same,TGI,SNB-75 CNS,5.17 µM
same,GI50,MDA-MB-231 breast,5.02 µM
same,TGI,MDA-MB-231 breast,22.4 µM
same,GI50,SF-295 CNS,1.29 µM
same,TGI,SF-295 CNS,> 12.8 µM
same,GI50,SK-MEL-5 melanoma,3.93 µM
same,TGI,SK-MEL-5 melanoma,9.2 µM
same,GI50,A498 renal,0.613 µM
same,TGI,A498 renal,4.48 µM
same,GI50,OVCAR-3 ovarian,3.01 µM
same,TGI,OVCAR-3 ovarian,10.3 µM
same,GI50,U251 CNS,0.875 µM
same,TGI,U251 CNS,6.94 µM
same,GI50,NCI-H226 lung,3.18 µM
same,TGI,NCI-H226 lung,10.2 µM
same,GI50,T-47D breast,1.81 µM
same,TGI,T-47D breast,13.8 µM
same,GI50,PC-3 prostate,3.27 µM
same,TGI,PC-3 prostate,9.09 µM
same,GI50,K-562 leukemia,1.42 µM
same,TGI,K-562 leukemia,> 25 µM
same,GI50,SN12C renal,1.68 µM
same,TGI,SN12C renal,> 25 µM
same,GI50,OVCAR-5 ovarian,4.33 µM
same,TGI,OVCAR-5 ovarian,> 20.7 µM
same,GI50,TK-10 renal,0.899 µM
same,TGI,TK-10 renal,5.58 µM
same,GI50,HT29 colon,1.12 µM
same,TGI,HT29 colon,9.04 µM
same,GI50,OVCAR-8 ovarian,2.05 µM
same,TGI,OVCAR-8 ovarian,9.69 µM
same,GI50,HOP-92 NSCLC,3.68 µM
same,TGI,HOP-92 NSCLC,10.1 µM
same,GI50,MALME-3M melanoma,2.62 µM
same,TGI,MALME-3M melanoma,12.1 µM
same,GI50,CCRF-CEM leukemia,1.31 µM
same,TGI,CCRF-CEM leukemia,> 25 µM
same,GI50,UACC-62 melanoma,1.2 µM
same,TGI,UACC-62 melanoma,5.61 µM
same,GI50,MCF7 breast,0.795 µM
same,TGI,MCF7 breast,4.95 µM
same,GI50,OVCAR-4 ovarian,0.854 µM
same,TGI,OVCAR-4 ovarian,6.71 µM
same,GI50,SK-MEL-28 melanoma,4.46 µM
same,TGI,SK-MEL-28 melanoma,> 18 µM
same,GI50,A549 NSCLC,0.976 µM
same,TGI,A549 NSCLC,6.71 µM
same,GI50,SK-OV-3 ovarian,1.06 µM
same,TGI,SK-OV-3 ovarian,4.06 µM
same,GI50,NCI/ADR-RES ovarian,2.9 µM
same,TGI,NCI/ADR-RES ovarian,10.1 µM
same,GI50,HS 578T breast,1.25 µM
same,TGI,HS 578T breast,11.6 µM
same,GI50,NCI-H23 lung,3.87 µM
same,TGI,NCI-H23 lung,20.8 µM
same,GI50,HCT-116 colon,0.839 µM
same,TGI,HCT-116 colon,5.72 µM
same,GI50,UACC-257 melanoma,5.17 µM
same,TGI,UACC-257 melanoma,18.9 µM
same,GI50,SF-268 CNS,2.25 µM
same,TGI,SF-268 CNS,8.02 µM
same,GI50,ACHN renal,1.29 µM
same,TGI,ACHN renal,8.69 µM
same,GI50,MOLT-4 leukemia,4.29 µM
same,TGI,MOLT-4 leukemia,21.8 µM
same,GI50,M14 melanoma,1.34 µM
same,TGI,M14 melanoma,> 25 µM
same,GI50,SK-MEL-2 melanoma,4 µM
same,TGI,SK-MEL-2 melanoma,9.55 µM
same,GI50,COLO 205 colon,0.813 µM
same,TGI,COLO 205 colon,2.35 µM
same,GI50,CAKI-1 renal,1.03 µM
same,TGI,CAKI-1 renal,6.46 µM
same,GI50,HOP-62 NSCLC,1.67 µM
same,TGI,HOP-62 NSCLC,6.38 µM
same,GI50,UO-31 renal,2.06 µM
same,TGI,UO-31 renal,6.78 µM
same,GI50,DU-145 prostate,1.94 µM
same,TGI,DU-145 prostate,24.9 µM
same,GI50,BT-549 breast,1.57 µM
same,TGI,BT-549 breast,6.49 µM
same,GI50,SNB-19 CNS,2.98 µM
same,TGI,SNB-19 CNS,24.8 µM
same,GI50,HCC-2998 colon,1.93 µM
same,TGI,HCC-2998 colon,18.4 µM
same,GI50,RPMI-8226 leukemia,1.28 µM
same,TGI,RPMI-8226 leukemia,7.52 µM
same,GI50,LOX IMVI melanoma,1.22 µM
same,TGI,LOX IMVI melanoma,12.1 µM
same,GI50,SF-539 CNS,1.04 µM
same,TGI,SF-539 CNS,5.07 µM
same,GI50,786-0 renal,2.27 µM
same,TGI,786-0 renal,6.01 µM
same,GI50,MDA-MB-435,0.688 µM
same,TGI,MDA-MB-435,2.85 µM
